Source: the NIST ThermoML archive (doi:10.1021/acs.jced.8b00684)
Numbers after ± are expanded uncertainties.

Assay: xn = mol fraction of the nth substance listed
Conditions: 100 kPa, Liquid, Falling or rolling sphere viscometry

CCCCCCn1cc[n+](C)c1.F[B-](F)(F)F [1-hexyl-3-methylimidazolium tetrafluoroborate] + CC#N
viscosity [mPa·s]
Conditions	x1 = 0.104	x1 = 0.2049	x1 = 0.2948	x1 = 0.4066	x1 = 0.4616	x1 = 0.5697	x1 = 0.6626	x1 = 0.8083	x1 = 0.9044	x1 = 1
293.15 K	1.15 ± 0.05	2.43 ± 0.1	4.79 ± 0.2	10.5 ± 0.4	14.9 ± 0.6	29.1 ± 1.2	50 ± 2	112 ± 5	184 ± 10	293 ± 20
298.15 K	1.05 ± 0.04	2.26 ± 0.09	4.32 ± 0.18	9.04 ± 0.37	12.7 ± 0.5	24 ± 1	40.3 ± 1.6	86.4 ± 3.8	139 ± 7	216 ± 13
303.15 K	0.99 ± 0.04	2.08 ± 0.09	3.89 ± 0.16	7.92 ± 0.32	11 ± 0.5	20.1 ± 0.8	32.8 ± 1.3	67.7 ± 2.8	106 ± 5	163 ± 9
313.15 K	0.87 ± 0.04	1.79 ± 0.07	3.21 ± 0.13	6.19 ± 0.25	8.36 ± 0.34	14.6 ± 0.6	22.8 ± 0.9	43.9 ± 1.8	65.9 ± 2.7	96.7 ± 4.3
323.15 K	0.78 ± 0.03	1.56 ± 0.06	2.69 ± 0.11	4.98 ± 0.2	6.58 ± 0.27	11 ± 0.5	16.6 ± 0.7	30.1 ± 1.2	43.5 ± 1.8	61.8 ± 2.5
333.15 K	0.71 ± 0.03	1.37 ± 0.06	2.3 ± 0.09	4.1 ± 0.17	5.32 ± 0.22	8.58 ± 0.35	12.5 ± 0.5	21.7 ± 0.9	30.4 ± 1.2	41.9 ± 1.7
343.15 K	0.65 ± 0.03	1.22 ± 0.05	1.99 ± 0.08	3.43 ± 0.14	4.38 ± 0.18	6.85 ± 0.28	9.75 ± 0.4	16.2 ± 0.7	22.1 ± 0.9	29.5 ± 1.2

CCCCCCn1cc[n+](C)c1.F[B-](F)(F)F [1-hexyl-3-methylimidazolium tetrafluoroborate] + C[S+](C)[O-]
viscosity [mPa·s]
Conditions	293.15 K	298.15 K	303.15 K	313.15 K	323.15 K	333.15 K	343.15 K	353.15 K
x1 = 0.116	4.93 ± 0.2	4.18 ± 0.17	3.7 ± 0.15	2.96 ± 0.12	2.43 ± 0.1	1.94 ± 0.08	1.68 ± 0.07	1.37 ± 0.06
x1 = 0.2495	11 ± 0.5	9.67 ± 0.39	8.37 ± 0.34	6.47 ± 0.26	5.11 ± 0.21	4.02 ± 0.16	3.14 ± 0.13	2.77 ± 0.11
x1 = 0.2831	13.7 ± 0.6	11.8 ± 0.5	10.1 ± 0.4	7.71 ± 0.31	6.01 ± 0.24	4.74 ± 0.19	3.68 ± 0.15	3.21 ± 0.13
x1 = 0.3857	25 ± 1	20.6 ± 0.8	17.1 ± 0.7	12.4 ± 0.5	9.35 ± 0.38	7.28 ± 0.3	5.75 ± 0.23	4.72 ± 0.19
x1 = 0.5036	44.2 ± 1.8	34.9 ± 1.4	28.4 ± 1.2	19.6 ± 0.8	14.3 ± 0.6	10.8 ± 0.4	8.72 ± 0.35	6.7 ± 0.27
x1 = 0.5714	58.4 ± 2.4	45.6 ± 1.9	36.6 ± 1.5	24.8 ± 1	17.7 ± 0.7	13.2 ± 0.5	10.6 ± 0.4	7.99 ± 0.33
x1 = 0.6702	84.8 ± 3.7	65.6 ± 2.7	51.8 ± 2.1	34.1 ± 1.4	23.7 ± 1	17.2 ± 0.7	13.5 ± 0.6	10.2 ± 0.4
x1 = 0.7517	114 ± 5	87.6 ± 3.8	68.4 ± 2.8	44 ± 1.8	30 ± 1.2	21.4 ± 0.9	16.2 ± 0.7	12.3 ± 0.5
x1 = 0.7883	130 ± 6	99.7 ± 4.5	77.5 ± 3.3	49.2 ± 2	33.3 ± 1.4	23.6 ± 1	17.6 ± 0.7	13.4 ± 0.5
x1 = 0.8976	196 ± 11	148 ± 8	113 ± 5	69.4 ± 2.9	45.6 ± 1.9	31.6 ± 1.3	22.5 ± 0.9	17.2 ± 0.7
x1 = 1	293 ± 20	216 ± 13	163 ± 9	96.7 ± 4.3	61.8 ± 2.5	41.9 ± 1.7	29.5 ± 1.2	21.7 ± 0.9
